Laboratory results as given in the supplement of paper PMC10883282.
± gives the standard deviation of the averaged measurements.

Key:
Assay in all cases: relative viability vs DMSO control (72 h) (fraction); higher = more viable cells
SK-LMS-1 = tested on: SK-LMS-1
Procedure, shortened: (§1)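 Sarcoma cell lines went into 384-well plates at densities chosen to reach 80–90% confluence. After 24 h, each well received 2.5 µl of serially diluted compound, with source plates running from 10 mM to 0.0002 mM, and the plates were kept 72 h at 37 °C, 5% CO2, alongside 0.1% DMSO vehicle and a 5 µM positive control. Relative viability was derived from ATPLite readings as percent growth and averaged over up to triplicate wells. The data were then rescaled so that 1 stands for full and 0 for none.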

VA-ES-BJ = tested on: VA-ES-BJ
Procedure, shortened: as §1

KHOS-240S = tested on: KHOS-240S
Procedure, shortened: as §1

A204 = tested on: A204
Procedure, shortened: as §1

MES-SA = tested on: MES-SA
Procedure, shortened: as §1

SW1353 = tested on: SW1353
Procedure, shortened: as §1

SK-ES-1 = tested on: SK-ES-1
Procedure, shortened: as §1

RD = tested on: RD
Procedure, shortened: as §1

SW872 = tested on: SW872
Procedure, shortened: as §1

G401 = tested on: G401
Procedure, shortened: as §1

HS729 = tested on: HS729
Procedure, shortened: as §1

SW982 = tested on: SW982
Procedure, shortened: as §1

COc1cc2nccc(Oc3ccc(NC(=O)C4(C(=O)Nc5ccc(F)cc5)CC4)cc3)c2cc1OC [Cabozantinib]
Settings	relative viability
A204, 0.00017 µM	1.04 ± 0.053
A204, 0.00051 µM	1.1 ± 0.073
A204, 0.00152 µM	1.06 ± 0.073
A204, 0.00457 µM	1.06 ± 0.04
A204, 0.01372 µM	0.9735 ± 0.0068
A204, 0.04115 µM	0.785 ± 0.064
A204, 0.1235 µM	0.428 ± 0.038
A204, 0.3704 µM	0.378 ± 0.023
A204, 1.111 µM	0.341 ± 0.037
A204, 3.333 µM	0.312 ± 0.028
A204, 10 µM	0.229 ± 0.0041
G401, 0.00017 µM	1.08 ± 0.032
G401, 0.00051 µM	1.05 ± 0.035
G401, 0.00152 µM	1.02 ± 0.041
G401, 0.00457 µM	1.06 ± 0.054
G401, 0.01372 µM	1.05 ± 0.034
G401, 0.04115 µM	0.997 ± 0.063
G401, 0.1235 µM	0.969 ± 0.019
G401, 0.3704 µM	0.858 ± 0.03
G401, 1.111 µM	0.804 ± 0.03
G401, 3.333 µM	0.514 ± 0.017
G401, 10 µM	0.215 ± 0.06
HS729, 0.00017 µM	1.1 ± 0.023
HS729, 0.00051 µM	0.966 ± 0.056
HS729, 0.00152 µM	0.973 ± 0.062
HS729, 0.00457 µM	0.928 ± 0.049
HS729, 0.01372 µM	0.9662 ± 0.0076
HS729, 0.04115 µM	0.897 ± 0.076
HS729, 0.1235 µM	0.83 ± 0.049
HS729, 0.3704 µM	0.749 ± 0.027
HS729, 1.111 µM	0.64 ± 0.03
HS729, 3.333 µM	0.504 ± 0.025
HS729, 10 µM	0.288 ± 0.037
KHOS-240S, 0.00017 µM	1.11 ± 0.081
KHOS-240S, 0.00051 µM	1.08 ± 0.028
KHOS-240S, 0.00152 µM	1.08 ± 0.062
KHOS-240S, 0.00457 µM	1.06 ± 0.041
KHOS-240S, 0.01372 µM	1.06 ± 0.065
KHOS-240S, 0.04115 µM	1.07 ± 0.062
KHOS-240S, 0.1235 µM	1.02 ± 0.045
KHOS-240S, 0.3704 µM	1.04 ± 0.016
KHOS-240S, 1.111 µM	0.974 ± 0.06
KHOS-240S, 3.333 µM	0.6869 ± 0.0062
KHOS-240S, 10 µM	0.425 ± 0.045
MES-SA, 0.00017 µM	0.994 ± 0.029
MES-SA, 0.00051 µM	0.953 ± 0.041
MES-SA, 0.00152 µM	0.947 ± 0.022
MES-SA, 0.00457 µM	0.948 ± 0.036
MES-SA, 0.01372 µM	0.934 ± 0.02
MES-SA, 0.04115 µM	0.929 ± 0.023
MES-SA, 0.1235 µM	0.912 ± 0.027
MES-SA, 0.3704 µM	0.89 ± 0.05
MES-SA, 1.111 µM	0.807 ± 0.031
MES-SA, 3.333 µM	0.262 ± 0.013
MES-SA, 10 µM	0.163 ± 0.01
RD, 0.00017 µM	1.073 ± 0.0038
RD, 0.00051 µM	1.09 ± 0.025
RD, 0.00152 µM	1.09 ± 0.058
RD, 0.00457 µM	1.12 ± 0.042
RD, 0.01372 µM	1.11 ± 0.06
RD, 0.04115 µM	1.12 ± 0.028
RD, 0.1235 µM	1.13 ± 0.083
RD, 0.3704 µM	1.11 ± 0.061
RD, 1.111 µM	1.13 ± 0.061
RD, 3.333 µM	0.864 ± 0.078
RD, 10 µM	0.501 ± 0.016
SK-ES-1, 0.00017 µM	1.01 ± 0.039
SK-ES-1, 0.00051 µM	1.05 ± 0.024
SK-ES-1, 0.00152 µM	1.03 ± 0.011
SK-ES-1, 0.00457 µM	0.986 ± 0.023
SK-ES-1, 0.01372 µM	1.04 ± 0.04
SK-ES-1, 0.04115 µM	0.992 ± 0.021
SK-ES-1, 0.1235 µM	1 ± 0.068
SK-ES-1, 0.3704 µM	0.941 ± 0.036
SK-ES-1, 1.111 µM	0.885 ± 0.037
SK-ES-1, 3.333 µM	0.514 ± 0.028
SK-ES-1, 10 µM	0.128 ± 0.013
SK-LMS-1, 0.00017 µM	1.13 ± 0.049
SK-LMS-1, 0.00051 µM	1.13 ± 0.063
SK-LMS-1, 0.00152 µM	1.133 ± 0.0043
SK-LMS-1, 0.00457 µM	1.13 ± 0.028
SK-LMS-1, 0.01372 µM	1.09 ± 0.018
SK-LMS-1, 0.04115 µM	0.982 ± 0.032
SK-LMS-1, 0.1235 µM	0.599 ± 0.0083
SK-LMS-1, 0.3704 µM	0.379 ± 0.0053
SK-LMS-1, 1.111 µM	0.339 ± 0.016
SK-LMS-1, 3.333 µM	0.205 ± 0.011
SK-LMS-1, 10 µM	0.11 ± 0.036
SW872, 0.00017 µM	1.08 ± 0.033
SW872, 0.00051 µM	1.1 ± 0.041
SW872, 0.00152 µM	1.08 ± 0.034
SW872, 0.00457 µM	1.11 ± 0.062
SW872, 0.01372 µM	1.06 ± 0.069
SW872, 0.04115 µM	1.05 ± 0.021
SW872, 0.1235 µM	1.06 ± 0.075
SW872, 0.3704 µM	1.01 ± 0.075
SW872, 1.111 µM	0.931 ± 0.029
SW872, 3.333 µM	0.626 ± 0.023
SW872, 10 µM	0.4 ± 0.035
SW982, 0.00017 µM	1.04 ± 0.032
SW982, 0.00051 µM	1.01 ± 0.043
SW982, 0.00152 µM	1.03 ± 0.025
SW982, 0.00457 µM	1.035 ± 0.0016
SW982, 0.01372 µM	1.036 ± 0.005
SW982, 0.04115 µM	1.07 ± 0.058
SW982, 0.1235 µM	1.05 ± 0.046
SW982, 0.3704 µM	1.03 ± 0.048
SW982, 1.111 µM	0.993 ± 0.027
SW982, 3.333 µM	0.598 ± 0.028
SW982, 10 µM	0.259 ± 0.064
SW1353, 0.00017 µM	1.05 ± 0.058
SW1353, 0.00051 µM	1.02 ± 0.04
SW1353, 0.00152 µM	1.04 ± 0.029
SW1353, 0.00457 µM	0.987 ± 0.067
SW1353, 0.01372 µM	1.01 ± 0.014
SW1353, 0.04115 µM	1.01 ± 0.025
SW1353, 0.1235 µM	0.904 ± 0.022
SW1353, 0.3704 µM	0.8127 ± 0.0054
SW1353, 1.111 µM	0.783 ± 0.024
SW1353, 3.333 µM	0.54 ± 0.014
SW1353, 10 µM	0.317 ± 0.068
VA-ES-BJ, 0.00017 µM	1.07 ± 0.019
VA-ES-BJ, 0.00051 µM	1.06 ± 0.016
VA-ES-BJ, 0.00152 µM	1.04 ± 0.015
VA-ES-BJ, 0.00457 µM	1 ± 0.017
VA-ES-BJ, 0.01372 µM	1.04 ± 0.034
VA-ES-BJ, 0.04115 µM	1.03 ± 0.039
VA-ES-BJ, 0.1235 µM	0.9802 ± 0.0071
VA-ES-BJ, 0.3704 µM	0.971 ± 0.027
VA-ES-BJ, 1.111 µM	0.91 ± 0.037
VA-ES-BJ, 3.333 µM	0.68 ± 0.035
VA-ES-BJ, 10 µM	0.266 ± 0.024
